According to ChEMBL document CHEMBL1773036, “Scalarane sesterterpenes from the sponge Hyatella sp” (J Nat Prod, 2011):
Values after ≈ are worked out from the molar mass of the structure shown.

How the values were obtained:
Proteus vulgaris = test: Antibacterial activity against Proteus vulgaris ATCC 3851 after 24 hrs by twofold serial dilution method; format: functional; settings: ATCC 3851, 24 h
Salmonella typhimurium = test: Antibacterial activity against Salmonella typhimurium ATCC 14028 after 24 hrs by twofold serial dilution method; format: functional, Salmonella enterica subsp. enterica serovar Typhimurium; settings: Salmonella enterica, ATCC 14028, 24 h
Micrococcus luteus = test: Antibacterial activity against Micrococcus luteus IFO 12708 after 24 hrs by twofold serial dilution method; format: functional; settings: IFO 12708, 24 h
K562 = test: Cytotoxicity against human K562 cells by MTT assay; format: functional; settings: read-out: LC50 (the source's name)
Escherichia coli = test: Antibacterial activity against Escherichia coli ATCC 25922 after 24 hrs by twofold serial dilution method; format: functional; settings: ATCC 25922, 24 h
Staphylococcus aureus = test: Antibacterial activity against Staphylococcus aureus ATCC 6538p after 24 hrs by twofold serial dilution method; format: functional
Bacillus subtilis = test: Antibacterial activity against Bacillus subtilis ATCC 6633 after 24 hrs by twofold serial dilution method; format: functional; settings: ATCC 6633, 24 h
[1] = Inhibition of Magnaporthe grisea Guy 11 isocitrate lyase; design: species or system Pyricularia oryzae

Compound | MIC (Proteus vulgaris) [µg/mL] | MIC (Salmonella typhimurium) [µg/mL] | MIC (Micrococcus luteus) [µg/mL] | CC50 (K562) [µM] | MIC (Escherichia coli) [µg/mL] | MIC (Staphylococcus aureus) [µg/mL] | MIC (Bacillus subtilis) [µg/mL] | IC50 [1] [µM]
CC(=O)OC[C@]12CCCC(C)(C)[C@@H]1CC[C@]1(C)[C@@H]2C[C@@H](OC(C)=O)[C@]2(C)[C@@H]3C(=CC[C@@H]12)CO[C@H]3O | 3.12 (≈ 6.39 µM) | > 100 | > 100 | 39.5 | > 100 | > 100 | 0.78 (≈ 1.6 µM) | –
CO[C@@H]1OC(=O)C2=CC[C@H]3[C@]4(C)CC[C@H]5C(C)(C)CCC[C@]5(C)[C@H]4C[C@@H](OC(C)=O)[C@]3(C)[C@H]21 | > 100 | > 100 | > 100 | 38.4 | > 100 | > 100 | > 100 | 40.8
CO[C@@H]1OCC2=CC[C@H]3[C@]4(C)CC[C@H]5C(C)(C)CCC[C@]5(C)[C@H]4C[C@@H](O)[C@]3(C)[C@H]21 | > 100 | > 100 | > 100 | 24.6 | > 100 | > 100 | > 100 | –
CC(=O)OC[C@]12CCCC(C)(C)[C@@H]1CC[C@]1(C)[C@@H]2C[C@@H](O)[C@]2(C)[C@@H]3C(=CC[C@@H]12)CO[C@H]3O | 12.6 (≈ 28.2 µM) | 12.5 (≈ 28 µM) | 12.5 (≈ 28 µM) | 19.5 | > 100 | 25 (≈ 56 µM) | 6.25 (≈ 14 µM) | 107
CO[C@@H]1OCC2=CC[C@H]3[C@]4(C)CC[C@H]5C(C)(C)CCC[C@]5(C)[C@H]4C[C@@H](OC(C)=O)[C@]3(C)[C@H]21 | > 100 | > 100 | > 100 | > 100 | > 100 | > 100 | > 100 | –
CO[C@@H]1C[C@H]2[C@]3(C)CC[C@H]4C(C)(C)CCC[C@]4(C)[C@H]3C[C@@H](OC(C)=O)[C@]2(C)C2=C1C(=O)N(CC(=O)[O-])[C@H]2OC.[Na+] | 25 | 50 | 25 | 27 | 100 | 50 | 6.25 | 176
C[C@@]1(CO)CCC[C@]2(C)[C@H]3C[C@@H](O)[C@]4(C)[C@H]5COC(=O)C5=CC[C@H]4[C@]3(C)CC[C@@H]12 | > 100 | > 100 | > 100 | 31.1 | > 100 | > 100 | > 100 | 133
CC(=O)O[C@@H]1C[C@@H]2[C@@]3(C)CCCC(C)(C)[C@@H]3CC[C@@]2(C)[C@@H]2CC=C3C(=O)O[C@@H](O)[C@@H]3[C@@]12C | 6.25 (≈ 14.1 µM) | > 100 | > 100 | 28.3 | > 100 | > 100 | 6.25 (≈ 14.1 µM) | 112
O=C(O)CC[N+](=O)[O-] | – | – | – | – | – | – | – | 27.9
CO[C@@H]1C[C@H]2[C@]3(C)CC[C@H]4C(C)(C)CCC[C@]4(C)[C@H]3C[C@@H](OC(C)=O)[C@]2(C)C2=C1C(=O)O[C@H]2O | 3.12 (≈ 6.58 µM) | 12.5 (≈ 26.3 µM) | 25 (≈ 52.7 µM) | 36.7 | 50 (≈ 105 µM) | 25 (≈ 52.7 µM) | 0.78 (≈ 1.64 µM) | –
CC(=O)O[C@@H]1C[C@@H]2[C@@]3(C)CCCC(C)(C)[C@@H]3CC[C@@]2(C)[C@@H]2CC=C3CO[C@@H](O)[C@@H]3[C@@]12C | > 100 | > 100 | > 100 | 31.3 | > 100 | > 100 | > 100 | 55.3
CO[C@@H]1C[C@H]2[C@]3(C)CC[C@H]4C(C)(C)CCC[C@]4(C)[C@H]3C[C@@H](OC(C)=O)[C@]2(C)C2=C1[C@H](O)OC2=O (mixture of isomers) | 1.56 | 12.5 | 25 | 14.8 | > 100 | 25 | < 0.39 | –
CC1(C)S[C@@H]2[C@H](NC(=O)[C@H](N)c3ccccc3)C(=O)N2[C@H]1C(=O)O [AMPICILLIN] | 1.56 (≈ 4.46 µM) | 1.56 (≈ 4.46 µM) | 0.39 (≈ 1.12 µM) | – | 6.25 (≈ 17.9 µM) | 1.56 (≈ 4.46 µM) | 0.78 (≈ 2.23 µM) | –
COc1cccc2c1C(=O)c1c(O)c3c(c(O)c1C2=O)C[C@@](O)(C(=O)CO)C[C@@H]3O[C@H]1C[C@H](N)[C@H](O)[C@H](C)O1 [DOXORUBICIN] | – | – | – | 9.7 | – | – | – | –
